Measured values: ChEMBL document CHEMBL1833931, “Simple synthetic toll-like receptor 2 ligands” (Bioorg Med Chem Lett, 2011)
Calls of active or inactive are those of the source. The calls are words filed in the database; no cut-off is given here.

Molecular target: Toll-like receptor 2 (Homo sapiens) (UniProt O60603)
Assay: Agonist activity at TLR2 expressed in HEK293 cells co-expressing pNF-kappaB-Luc Cis assessed as NF-kappaB activation at 100 nM by luciferase reporter gene assay
Format: functional, cell-based

Toll-like receptor 2 (Homo sapiens), sequence (O60603 whole entry): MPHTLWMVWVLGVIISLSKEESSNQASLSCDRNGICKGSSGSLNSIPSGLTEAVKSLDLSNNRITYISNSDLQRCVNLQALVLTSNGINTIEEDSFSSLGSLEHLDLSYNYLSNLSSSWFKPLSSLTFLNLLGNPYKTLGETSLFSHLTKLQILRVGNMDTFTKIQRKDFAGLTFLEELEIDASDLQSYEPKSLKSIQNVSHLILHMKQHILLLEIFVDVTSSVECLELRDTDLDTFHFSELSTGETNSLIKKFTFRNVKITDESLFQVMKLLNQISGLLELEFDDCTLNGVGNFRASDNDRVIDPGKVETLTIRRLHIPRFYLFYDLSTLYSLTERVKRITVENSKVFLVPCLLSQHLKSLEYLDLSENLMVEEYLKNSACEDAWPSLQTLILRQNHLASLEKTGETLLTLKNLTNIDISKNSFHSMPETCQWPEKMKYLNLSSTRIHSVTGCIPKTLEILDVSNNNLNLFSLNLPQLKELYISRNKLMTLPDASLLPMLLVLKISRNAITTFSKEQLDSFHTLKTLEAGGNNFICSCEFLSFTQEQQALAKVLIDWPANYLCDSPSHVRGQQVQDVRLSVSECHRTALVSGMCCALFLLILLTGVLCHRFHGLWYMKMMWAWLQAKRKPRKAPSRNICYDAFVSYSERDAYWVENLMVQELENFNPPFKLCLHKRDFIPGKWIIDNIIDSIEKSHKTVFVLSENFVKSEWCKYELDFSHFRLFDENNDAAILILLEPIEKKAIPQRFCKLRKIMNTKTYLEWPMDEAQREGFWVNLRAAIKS

Row | SMILES | Activity
1 | CCCCCCCCCCCCCCCC(=O)NC(CCCCCCCCCCCCCC)C(=O)O (configuration not stated) | Active
2 | CCCCCCCCCCCCCCCC(=O)NC(CO)CCCCCCCCCCCCCC (configuration not stated) | Active
